Source: patent publication US20100311656A1 (priority 2003, published 2010)

Columns and labels:
[1] = mouse, in vivo
SARS-CoV (Urbani) = assay type: in vivo, mice
[2] = 0.2 mg/kg or 2 mg/kg s.c.; no toxicity controls included; cited from earlier work
[3] = subcutaneously injected; cited from earlier work
[4] = cited from earlier work

| Substance | Mean Body Weight Change [1] | Inhibition of lung virus titers (SARS-CoV (Urbani); 50 μg/mouse i.n., positive control, P<0.01) | Virus Titer (Log10 CCID50/g) (SARS-CoV (Urbani); lung, day 3 after infection, 50 μg/mouse i.n., -24 h, +12 h, mean ± SD, P < 0.01 vs buffer) | Tolerability of the doses used (previously shown) [2] | Tolerability of treatments [1] | Plasma half-life [3] | Effect on virus lung titers (SARS-CoV (Urbani); mouse, in vivo) | Reduction of virus lung titers (SARS-CoV (Urbani); mouse, in vivo) | Reduction of virus titers (SARS-CoV (Urbani); mouse, in vivo) | Virus titer reductions (range over regimens) (SARS-CoV (Urbani); mouse, in vivo) | Dose found to be safe for humans [4] |
| --- | --- | --- | --- | --- | --- | --- | --- | --- | --- | --- | --- |
| Poly-ICLC | 0.0 g | ~3 log 10 units | 2.9 ± 0.1 Log10 CCID50/g |  |  |  |  |  |  |  |  |
| Ac-SDAAVDTSSEITTKDLKEKKEVVEEAEN-OH [thymosin alpha-1] |  |  |  | well tolerated | very well tolerated | about two | significantly reduced virus lung titers | about one | approximately 0.5 log10 unit | 0.5-1.0 log10 units | ≤ 16 mg/kg body weight/day |
